According to patent US20070183976A1, “Composition for ultrasound therapy and pharmaceutical liquid composition containing the same” (IMARX THERAPEUTICS, INC., priority 2006, published 2007):

System: artificial thrombosis
Experiment: Fibrinolysis of artificial thrombosis (Chandler's method) with ultrasonic catheter
Format: biochemical, human
Conditions: average of two tests; for time for achieving 20% fibrinolysis: FIG. 4, blood from one person
Method: An artificial thrombosis was formed by Chandler's method. A sample of blood (1 ml) collected from a healthy person was entered into a flexible tube (inside diameter 3 mm, length 265 mm) and calcium chloride was added. The tube was shaped like a loop and was rotated at 12 r.p.m. for 20 minutes to give an artificial thrombosis model.
A ceramic ultrasonic element (width 2 mm, length 5 mm, thickness 1 mm) was inserted into the tip of a catheter (diameter 2 mm), and an oscillating element was connected to an oscillator provided outside with a fine connector passed through the catheter. A fine tube for pouring a test solution was provided at an opening opposite to the opening of the catheter end.
The artificial thrombosis prepared as described above was added to a test tube together with blood, and the ultrasonic catheter was inserted into the test tube so that the end of the catheter was set close to the portion of the artificial thrombosis (at a distance of about 5 mm). To the test tube was added a mixture of urokinase and a booster prepared as in Example 1 at a rate of 1 ml per minute, wherein urokinase (concentration 1200 Ill/ml) and the booster were mixed immediately before pouring at a mixing ratio of 1:1 by mass. The mixture was refluxed while keeping the volume of the test solution at a constant level by removing excess volume of the solution by suction.
The mixture was exposed to the ultrasound at a frequency of 170 KHz to by a pulse method (exposure for 2 seconds followed by termination of exposure for 4 seconds) for 2 minutes. Total exposure time was 40 seconds). After the exposure, the ultrasonic catheter was removed from the test tube, and the mixture was incubated at 37° C. for between 5 and 120 minutes, washed with a physiological saline solution several times and dried overnight. Thereafter, the dried mixture was weighed. […]
The rate of fibrinolysis was calculated by the following equation: Fibrinolysis rate (%)=(A−B)/A×100, wherein • A is the weight of thrombosis in control; and • B is the weight of thrombosis treated. […]

**Q.** Which results are given for urokinase?
**A.** time for achieving 20% fibrinolysis (with exposure of ultrasound 170 KHz pulsed, 40 s total): 30 min; time for achieving 20% fibrinolysis (without exposure of ultrasound, urokinase 1200 IU/ml): about 45 minutes; treatment time at which 50% fibrinolysis was achieved (FIG. 5, with exposure of ultrasound, energy reduced by 15%, blood from another person): 60 min
